Laboratory results: patent US20230321033A1, “THIOPHEN COMPOUNDS FOR USE IN THE TREATMENT OF RENAL FIBROSIS” (ENYO PHARMA, priority 2020, published 2023)
Entries after “also recorded” stand apart in the source; their conditions may differ.

Assays:
[1] = test system: kidneys of NASH mice (AMLN diet); experiment: Renal fibrosis in NASH mouse model, picrosirius red (PSR) staining of kidneys; type: in vivo; details: mice on AMLN diet 30 weeks, then PO treatment 8 weeks twice a day, 7 or 20 mg/kg; kidneys at sacrifice
Procedure: (§1) Compound #157 was evaluated in a mouse model of NASH. Mice were fed with an AMLN diet (high in fat (40%), fructose (22%) and cholesterol (2%)) for 30 weeks prior treatment with Compound #157 for 8 weeks twice a day at a dose of 7 or 20 mg/kg.
(§2) The livers and kidneys were collected at sacrifice. Fibrosis, in particular tubulointerstitial fibrosis, has been evaluated by quantification of the picrosirius red (PSR) staining positive areas. Inflammation has been quantified on CD3 stained sections.

[2] = test system: kidneys of NASH mice (AMLN diet); experiment: Renal inflammation in NASH mouse model, CD3 stained kidney sections; type: in vivo; details: mice on AMLN diet 30 weeks, then PO treatment 8 weeks twice a day, 7 or 20 mg/kg; kidneys at sacrifice
Procedure: as §1, §2

## O=C(Nc1scc(C2CCc3ccccc3C2)c1C(=O)O)c1ccccc1 (stereo not drawn) [Compound #157]
[1]
  renal fibrosis (tubulointerstitial), quantification of picrosirius red (PSR) staining positive areas: completely resolve fibrosis; also recorded: significantly decreases renal fibrosis
[2]
  decrease of renal inflammation (CD3 stained sections): 50%
  renal inflammation (lymphocytes infiltration), quantified on CD3 stained sections: attenuate significantly inflammation; also recorded: significantly decreases renal inflammation
